Experimental data published in publication doi:10.1101/2023.12.04.569845, “Identification of 4-(6-((2-methoxyphenyl)amino)pyrazin-2-yl)benzoic acids as CSNK2A inhibitors with antiviral activity and improved selectivity over PIM3” (bioRxiv, 2023).
Read-outs that look alike come from different tables or passages of the source. Blank lines part the entries; values can stand above or below the compound they belong to.

Key:
Test in all cases: biochemical
Design in all cases: Thermal shift (DSF, SYPRO Orange) Tm shift of recombinant kinase domains at 10 uM compound
BMX = molecular target: T1, BMX (Homo sapiens, UniProt P51813)
T1 sequence (P51813 1-675): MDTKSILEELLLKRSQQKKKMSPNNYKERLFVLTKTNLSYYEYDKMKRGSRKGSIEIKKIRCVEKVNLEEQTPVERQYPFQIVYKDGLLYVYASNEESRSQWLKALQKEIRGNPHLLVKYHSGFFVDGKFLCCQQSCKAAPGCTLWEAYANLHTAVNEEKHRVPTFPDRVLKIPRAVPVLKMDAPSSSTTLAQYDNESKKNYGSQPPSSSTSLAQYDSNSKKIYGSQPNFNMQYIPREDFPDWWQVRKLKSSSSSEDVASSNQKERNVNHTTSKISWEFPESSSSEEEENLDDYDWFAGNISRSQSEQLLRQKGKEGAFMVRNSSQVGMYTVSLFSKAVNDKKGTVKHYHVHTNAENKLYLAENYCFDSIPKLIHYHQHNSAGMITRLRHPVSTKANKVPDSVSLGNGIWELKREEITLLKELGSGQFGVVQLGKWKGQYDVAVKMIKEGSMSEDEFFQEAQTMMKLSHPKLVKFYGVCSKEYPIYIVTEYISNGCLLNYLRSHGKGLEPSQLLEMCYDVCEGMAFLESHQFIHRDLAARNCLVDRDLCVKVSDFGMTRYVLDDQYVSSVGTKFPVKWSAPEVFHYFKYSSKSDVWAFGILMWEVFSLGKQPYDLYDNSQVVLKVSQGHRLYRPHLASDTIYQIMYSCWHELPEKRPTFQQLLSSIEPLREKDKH
Method: (§1) S23 Thermal stability kinase selectivity. The assay was performed as previously described. 9,10 Briefly, recombinant protein kinase domains at a concentration of 2 μM were mixed with 10 μM compound in a buffer containing 20 mM HEPES, pH 7.5, and 500 mM NaCl. SYPRO Orange (5000×, Invitrogen) was added as a fluorescence probe (1 µl per mL). Subsequently, temperature-dependent protein unfolding profiles were measured using the QuantStudio™ 5 realtime PCR machine (Thermo Fisher). […] The temperature was raised with a step rate of 3°C per minute. Data points were analysed with the internal software (Thermal Shift SoftwareTM Version 1.4, Thermo Fisher) using the Boltzmann equation to determine the inflection point of the transition curve.

CDK2 = CDK2 (Homo sapiens, UniProt P24941)
Method: as §1

CSNK2a1 = molecular target: T2, CSNK2a1 (Homo sapiens, UniProt P68400)
T2 construct: kinase domain
Method: as §1

FECH = molecular target: T3, FECH (Homo sapiens, UniProt P22830)
T3 sequence (P22830 1-423): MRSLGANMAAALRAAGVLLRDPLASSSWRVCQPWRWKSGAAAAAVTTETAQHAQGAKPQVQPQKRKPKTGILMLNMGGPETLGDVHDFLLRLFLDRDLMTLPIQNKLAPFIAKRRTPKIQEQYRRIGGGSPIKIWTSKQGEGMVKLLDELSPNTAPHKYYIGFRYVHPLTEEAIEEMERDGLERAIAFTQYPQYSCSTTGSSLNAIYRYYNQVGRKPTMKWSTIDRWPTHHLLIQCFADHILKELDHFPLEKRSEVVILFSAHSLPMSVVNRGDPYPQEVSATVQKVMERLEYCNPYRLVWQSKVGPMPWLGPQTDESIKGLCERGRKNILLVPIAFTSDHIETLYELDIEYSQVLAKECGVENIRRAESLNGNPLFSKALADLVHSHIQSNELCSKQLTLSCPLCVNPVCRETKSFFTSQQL
Method: as §1

HIPK2 = HIPK2 (Homo sapiens, UniProt Q9H2X6)
Method: as §1

PIM1 = PIM1 (Homo sapiens, UniProt P11309)
Chain of PIM1 (P11309 whole entry): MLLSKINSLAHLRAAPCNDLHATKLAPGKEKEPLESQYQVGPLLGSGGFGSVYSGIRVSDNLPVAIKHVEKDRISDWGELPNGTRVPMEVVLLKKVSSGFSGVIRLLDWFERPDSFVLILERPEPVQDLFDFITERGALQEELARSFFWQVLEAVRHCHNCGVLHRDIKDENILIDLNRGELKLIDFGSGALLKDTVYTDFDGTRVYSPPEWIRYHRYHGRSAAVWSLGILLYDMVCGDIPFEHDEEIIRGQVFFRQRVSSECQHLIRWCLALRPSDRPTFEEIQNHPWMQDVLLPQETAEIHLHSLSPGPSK
Method: as §1

Chain of HIPK2 (Q9H2X6 whole entry): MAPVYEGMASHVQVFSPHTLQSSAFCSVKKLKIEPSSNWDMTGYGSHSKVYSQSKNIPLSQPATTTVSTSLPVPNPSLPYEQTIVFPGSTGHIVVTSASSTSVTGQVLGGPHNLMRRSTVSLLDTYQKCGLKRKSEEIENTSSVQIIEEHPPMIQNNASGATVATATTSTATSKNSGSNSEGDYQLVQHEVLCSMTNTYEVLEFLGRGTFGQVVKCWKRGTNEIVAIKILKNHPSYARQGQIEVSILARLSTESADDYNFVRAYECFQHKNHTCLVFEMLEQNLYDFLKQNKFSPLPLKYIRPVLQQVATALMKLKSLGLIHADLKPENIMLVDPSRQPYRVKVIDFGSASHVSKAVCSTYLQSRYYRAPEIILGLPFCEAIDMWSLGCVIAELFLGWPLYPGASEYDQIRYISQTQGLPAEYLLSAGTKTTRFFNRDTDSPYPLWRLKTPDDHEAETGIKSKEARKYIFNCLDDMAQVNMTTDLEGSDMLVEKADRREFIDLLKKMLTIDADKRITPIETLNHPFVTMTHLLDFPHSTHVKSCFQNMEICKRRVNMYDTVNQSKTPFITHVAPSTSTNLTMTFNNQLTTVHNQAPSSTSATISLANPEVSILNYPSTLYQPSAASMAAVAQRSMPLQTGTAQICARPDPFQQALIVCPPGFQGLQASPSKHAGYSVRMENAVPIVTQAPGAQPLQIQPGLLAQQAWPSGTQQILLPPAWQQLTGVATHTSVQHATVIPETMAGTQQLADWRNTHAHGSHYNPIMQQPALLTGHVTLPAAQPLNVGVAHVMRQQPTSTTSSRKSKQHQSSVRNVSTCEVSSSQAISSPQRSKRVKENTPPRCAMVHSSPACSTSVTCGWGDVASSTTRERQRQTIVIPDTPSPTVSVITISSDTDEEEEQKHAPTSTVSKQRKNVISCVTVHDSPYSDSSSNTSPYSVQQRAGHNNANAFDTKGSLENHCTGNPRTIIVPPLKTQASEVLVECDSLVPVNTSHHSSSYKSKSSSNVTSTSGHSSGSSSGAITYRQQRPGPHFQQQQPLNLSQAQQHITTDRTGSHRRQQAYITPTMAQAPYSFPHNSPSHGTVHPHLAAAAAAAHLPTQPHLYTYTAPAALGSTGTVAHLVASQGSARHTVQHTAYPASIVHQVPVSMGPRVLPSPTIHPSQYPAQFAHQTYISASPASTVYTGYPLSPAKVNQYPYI
T2 sequence (P68400 whole entry, the tested form may be a part): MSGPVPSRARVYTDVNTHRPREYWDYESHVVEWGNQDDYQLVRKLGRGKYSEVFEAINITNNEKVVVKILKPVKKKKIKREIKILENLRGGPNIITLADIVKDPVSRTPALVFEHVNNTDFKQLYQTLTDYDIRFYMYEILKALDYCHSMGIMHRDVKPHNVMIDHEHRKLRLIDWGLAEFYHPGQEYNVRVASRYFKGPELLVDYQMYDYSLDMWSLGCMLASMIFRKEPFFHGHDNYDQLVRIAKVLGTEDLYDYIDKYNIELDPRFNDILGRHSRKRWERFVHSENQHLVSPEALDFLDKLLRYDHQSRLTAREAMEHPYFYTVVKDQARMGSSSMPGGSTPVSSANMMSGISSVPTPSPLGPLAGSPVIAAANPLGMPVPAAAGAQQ

- ΔTm at 10 µM (BMX; read-out: 7c): 1 °C
- ΔTm at 10 µM (CDK2; read-out: 7c): 1 °C
- ΔTm at 10 µM (CSNK2a1; read-out: 7c): 15 °C
- ΔTm at 10 µM (FECH; read-out: 7c): 0 °C
- ΔTm at 10 µM (HIPK2; read-out: 7c): 7 °C
- ΔTm at 10 µM (PIM1; read-out: 7c): 9 °C
Structure (SMILES): COc1ccc(OC(C)C)cc1Nc1cncc(-c2ccc(C(=O)O)cc2)n1 [7c]

- ΔTm at 10 µM (BMX; read-out: 6c): 2 °C
- ΔTm at 10 µM (CDK2; read-out: 6c): 5 °C
- ΔTm at 10 µM (CSNK2a1; read-out: 6c): 15 °C
- ΔTm at 10 µM (FECH; read-out: 6c): -3 °C
- ΔTm at 10 µM (HIPK2; read-out: 6c): 9 °C
- ΔTm at 10 µM (PIM1; read-out: 6c): 10 °C
Structure (SMILES): CC(C)Oc1ccc2ccn(-c3cncc(-c4ccc(C(=O)O)cc4)n3)c2c1 [6c]

- ΔTm at 10 µM (BMX; read-out: 2): 3 °C
- ΔTm at 10 µM (FECH; read-out: 2): 0 °C
Structure (SMILES): CC(C)Nc1ccc2cnn(-c3cncc(-c4ccc(C(=O)O)cc4)n3)c2c1 [compound 2, 2]
